Test results reported in PubChem BioAssay AID1745844 (Carcinogenic Potency Database (CPDB), 2022).

Tested on: rodent lifetime carcinogenesis bioassay, tumor incidence TD50
Assay: carcinogenic potency in animals, long-term in vivo studies, CPDB compilation (AID 1745844)

Which TD50 (monkey, strain Cynomolgus [Macaca fascicularis], both sexes, several routes, site: all sites, lesion: acute nonlymphocytic leukemia, dosed 825 weeks, study length 980 weeks) does the source give for `CNNCc1ccc(C(=O)NC(C)C)cc1` here?
The TD50 was 14.8 mg/kg/day.

What about the TD50 (monkey, strain Cynomolgus [Macaca fascicularis], both sexes, several routes, site: all sites, lesion: lymphocytic lymphoma, dosed 825 weeks, study length 980 weeks) of the same compound?
Its TD50 is 21.1 mg/kg/day.

What about the TD50 (monkey, strain Cynomolgus [Macaca fascicularis], both sexes, several routes, site: any site (literature study), lesion: malignant tumor, dosed 825 weeks, study length 980 weeks) of the same compound?
The TD50 was 1.73 mg/kg/day.

What about the TD50 (monkey, strain Cynomolgus [Macaca fascicularis], both sexes, several routes, site: bone, lesion: osteosarcoma, dosed 825 weeks, study length 980 weeks) of the same compound?
Its TD50 is 5.91 mg/kg/day.

And the TD50 (monkey, strain Cynomolgus [Macaca fascicularis], both sexes, several routes, site: brain, lesion: astrocytoma, dosed 825 weeks, study length 980 weeks)?
Its TD50 is 6.19 mg/kg/day.

What about the TD50 (monkey, strain Cynomolgus [Macaca fascicularis], both sexes, several routes, site: kidney, lesion: hemangiosarcoma, dosed 825 weeks, study length 980 weeks) of the same compound?
The TD50 was 23.5 mg/kg/day.

What about the TD50 (monkey, strain Rhesus [Macaca mulatta], both sexes, several routes, site: all sites, lesion: acute nonlymphocytic leukemia, dosed 825 weeks, study length 1182 weeks) of the same compound?
The TD50 was 4.21 mg/kg/day.

And the TD50 (monkey, strain Rhesus [Macaca mulatta], both sexes, several routes, site: any site (literature study), lesion: malignant tumor, dosed 825 weeks, study length 1182 weeks)?
Its TD50 is 1.9 mg/kg/day.

What about the TD50 (monkey, strain Rhesus [Macaca mulatta], both sexes, several routes, site: cecum, lesion: adenocarcinoma, dosed 825 weeks, study length 1182 weeks) of the same compound?
The TD50 was 5.16 mg/kg/day.

And the TD50 (monkey, strain Rhesus [Macaca mulatta], both sexes, several routes, site: humerus, lesion: osteosarcoma, dosed 825 weeks, study length 1182 weeks)?
The TD50 was 32.7 mg/kg/day.

What about the TD50 (monkey, strain Rhesus [Macaca mulatta], both sexes, several routes, site: kidney, lesion: hemangiosarcoma, dosed 825 weeks, study length 1182 weeks) of the same compound?
Its TD50 is 39.6 mg/kg/day.

And the TD50 (mouse, strain B6C3F1, females, i.p., site: all sites + brain + lung + uterus, lesion: leukemia + lymphoma + olfactory neuroblastoma + alveolar/bronchiolar adenoma + adenocarcinoma, NOS, dosed 52 weeks, study length 85 weeks)?
The TD50 was 0.194 mg/kg/day.

What about the TD50 (mouse, strain B6C3F1, females, i.p., site: all sites, lesion: leukemia + lymphoma, dosed 52 weeks, study length 80 weeks) of the same compound?
The TD50 was 0.69 mg/kg/day.

And the TD50 (mouse, strain B6C3F1, females, i.p., site: all sites, lesion: leukemia + lymphoma, dosed 52 weeks, study length 85 weeks)?
Its TD50 is 0.758 mg/kg/day.

And the TD50 (mouse, strain B6C3F1, females, i.p., site: all sites, lesion: lymphoma, dosed 52 weeks, study length 80 weeks)?
Its TD50 is 0.855 mg/kg/day.

What about the TD50 (mouse, strain B6C3F1, females, i.p., site: all sites, lesion: lymphoma, dosed 52 weeks, study length 85 weeks) of the same compound?
The TD50 was 0.908 mg/kg/day.

And the TD50 (mouse, strain B6C3F1, females, i.p., site: any site (literature study), lesion: several types, types named in the paper, dosed 52 weeks, study length 85 weeks)?
Its TD50 is 0.193 mg/kg/day.

And the TD50 (mouse, strain B6C3F1, females, i.p., site: brain, lesion: olfactory neuroblastoma, dosed 52 weeks, study length 80 weeks)?
Its TD50 is 5.62 mg/kg/day.

What about the TD50 (mouse, strain B6C3F1, females, i.p., site: brain, lesion: olfactory neuroblastoma, dosed 52 weeks, study length 85 weeks) of the same compound?
The TD50 was 6.34 mg/kg/day.

And the TD50 (mouse, strain B6C3F1, females, i.p., site: lung, lesion: alveolar/bronchiolar adenoma + alveolar/bronchiolar carcinoma, dosed 52 weeks, study length 85 weeks)?
The TD50 was 3.83 mg/kg/day.

And the TD50 (mouse, strain B6C3F1, females, i.p., site: lung, lesion: alveolar/bronchiolar adenoma, dosed 52 weeks, study length 80 weeks)?
Its TD50 is 3.39 mg/kg/day.

And the TD50 (mouse, strain B6C3F1, females, i.p., site: lung, lesion: alveolar/bronchiolar adenoma, dosed 52 weeks, study length 85 weeks)?
Its TD50 is 3.83 mg/kg/day.

What about the TD50 (mouse, strain B6C3F1, females, i.p., site: uterus, lesion: adenocarcinoma, NOS, dosed 52 weeks, study length 80 weeks) of the same compound?
The TD50 was 0.411 mg/kg/day.

And the TD50 (mouse, strain B6C3F1, females, i.p., site: uterus, lesion: adenocarcinoma, NOS, dosed 52 weeks, study length 85 weeks)?
Its TD50 is 0.253 mg/kg/day.

What about the TD50 (mouse, strain B6C3F1, males, i.p., site: all sites + brain + lung, lesion: leukemia + lymphoma + olfactory neuroblastoma + undifferentiated carcinoma + alveolar/bronchiolar adenoma + alveolar/bronchiolar c, dosed 52 weeks, study length 85 weeks) of the same compound?
Its TD50 is 0.511 mg/kg/day.

What about the TD50 (mouse, strain B6C3F1, males, i.p., site: all sites, lesion: leukemia + lymphoma, dosed 52 weeks, study length 85 weeks) of the same compound?
The TD50 was 3.34 mg/kg/day.

What about the TD50 (mouse, strain B6C3F1, males, i.p., site: any site (literature study), lesion: several types, types named in the paper, dosed 52 weeks, study length 85 weeks) of the same compound?
The TD50 was 0.464 mg/kg/day.

And the TD50 (mouse, strain B6C3F1, males, i.p., site: brain, lesion: olfactory neuroblastoma + undifferentiated carcinoma, dosed 52 weeks, study length 85 weeks)?
Its TD50 is 4.51 mg/kg/day.

What about the TD50 (mouse, strain B6C3F1, males, i.p., site: brain, lesion: olfactory neuroblastoma, dosed 52 weeks, study length 85 weeks) of the same compound?
Its TD50 is 5.19 mg/kg/day.

What about the TD50 (mouse, strain B6C3F1, males, i.p., site: liver, lesion: hepatocellular adenoma + hepatocellular carcinoma + neoplastic nodule, dosed 52 weeks, study length 85 weeks) of the same compound?
The TD50 was 3.28 mg/kg/day.

And the TD50 (mouse, strain B6C3F1, males, i.p., site: lung, lesion: alveolar/bronchiolar adenoma + alveolar/bronchiolar carcinoma, dosed 52 weeks, study length 85 weeks)?
Its TD50 is 0.623 mg/kg/day.

What about the TD50 (mouse, strain B6C3F1, males, i.p., site: lung, lesion: alveolar/bronchiolar adenoma, dosed 52 weeks, study length 85 weeks) of the same compound?
Its TD50 is 0.721 mg/kg/day.

What about the TD50 (mouse, strain Swiss, females, i.p., site: all sites, lesion: leukemia, dosed 26 weeks, study length 76 weeks) of the same compound?
Its TD50 is 3.72 mg/kg/day.

What about the TD50 (mouse, strain Swiss, females, i.p., site: all sites, lesion: lymphosarcoma, dosed 26 weeks, study length 76 weeks) of the same compound?
The TD50 was 6.99 mg/kg/day.

What about the TD50 (mouse, strain Swiss, females, i.p., site: any site (literature study), lesion: benign tumor, dosed 26 weeks, study length 76 weeks) of the same compound?
Its TD50 is 27.8 mg/kg/day.

What about the TD50 (mouse, strain Swiss, females, i.p., site: any site (literature study), lesion: malignant tumor, dosed 26 weeks, study length 76 weeks) of the same compound?
Its TD50 is 0.391 mg/kg/day.

And the TD50 (mouse, strain Swiss, females, i.p., site: any site (literature study), lesion: several types, types named in the paper, dosed 26 weeks, study length 76 weeks)?
The TD50 was 0.244 mg/kg/day.

And the TD50 (mouse, strain Swiss, females, i.p., site: lung, lesion: several types, types named in the paper, dosed 26 weeks, study length 76 weeks)?
The TD50 was 1.05 mg/kg/day.

What about the TD50 (mouse, strain Swiss, females, i.p., site: uterus, lesion: carcinoma, dosed 26 weeks, study length 76 weeks) of the same compound?
Its TD50 is 5.75 mg/kg/day.

What about the TD50 (mouse, strain Swiss, females, i.p., site: uterus, lesion: sarcoma, dosed 26 weeks, study length 76 weeks) of the same compound?
Its TD50 is 6.11 mg/kg/day.

What about the TD50 (mouse, strain Swiss, males, i.p., site: any site (literature study), lesion: benign tumor, dosed 26 weeks, study length 78 weeks) of the same compound?
The TD50 was 9.84 mg/kg/day.

What about the TD50 (mouse, strain Swiss, males, i.p., site: any site (literature study), lesion: malignant tumor, dosed 26 weeks, study length 78 weeks) of the same compound?
Its TD50 is 1.74 mg/kg/day.

What about the TD50 (mouse, strain Swiss, males, i.p., site: any site (literature study), lesion: several types, types named in the paper, dosed 26 weeks, study length 78 weeks) of the same compound?
Its TD50 is 1.15 mg/kg/day.

And the TD50 (mouse, strain Swiss, males, i.p., site: lung, lesion: several types, types named in the paper, dosed 26 weeks, study length 78 weeks)?
The TD50 was 1.53 mg/kg/day.

What about the TD50 (rat, strain BR 46, males, i.v., site: any site (literature study), lesion: malignant tumor, dosed 52 weeks, study length 104 weeks) of the same compound?
Its TD50 is 3.93 mg/kg/day.

What about the TD50 (rat, strain BR 46, males, i.v., site: any site (literature study), lesion: several types, types named in the paper, dosed 52 weeks, study length 104 weeks) of the same compound?
The TD50 was 4.01 mg/kg/day.

What about the TD50 (rat, strain Sprague-Dawley, females, i.p., site: all sites + brain + cerebrum + mammary gland, lesion: lymphoma + olfactory neuroblastoma + mucinous adenocarcinoma + adenocarcinoma, NOS + adenoma, NOS, dosed 26 weeks, study length 86 weeks) of the same compound?
Its TD50 is 0.337 mg/kg/day.

What about the TD50 (rat, strain Sprague-Dawley, females, i.p., site: all sites, lesion: lymphoma, dosed 26 weeks, study length 80 weeks) of the same compound?
Its TD50 is 4.48 mg/kg/day.

What about the TD50 (rat, strain Sprague-Dawley, females, i.p., site: all sites, lesion: lymphoma, dosed 26 weeks, study length 86 weeks) of the same compound?
Its TD50 is 5.18 mg/kg/day.

And the TD50 (rat, strain Sprague-Dawley, females, i.p., site: any site (literature study), lesion: several types, types named in the paper, dosed 26 weeks, study length 86 weeks)?
The TD50 was 0.329 mg/kg/day.

And the TD50 (rat, strain Sprague-Dawley, females, i.p., site: brain + cerebrum, lesion: olfactory neuroblastoma + mucinous adenocarcinoma, dosed 26 weeks, study length 80 weeks)?
Its TD50 is 0.36 mg/kg/day.

And the TD50 (rat, strain Sprague-Dawley, females, i.p., site: brain + cerebrum, lesion: olfactory neuroblastoma + mucinous adenocarcinoma, dosed 26 weeks, study length 86 weeks)?
The TD50 was 0.416 mg/kg/day.

And the TD50 (rat, strain Sprague-Dawley, females, i.p., site: brain, lesion: olfactory neuroblastoma, dosed 26 weeks, study length 80 weeks)?
Its TD50 is 0.361 mg/kg/day.

And the TD50 (rat, strain Sprague-Dawley, females, i.p., site: brain, lesion: olfactory neuroblastoma, dosed 26 weeks, study length 86 weeks)?
Its TD50 is 0.418 mg/kg/day.

And the TD50 (rat, strain Sprague-Dawley, females, i.p., site: mammary gland, lesion: adenocarcinoma, NOS + adenoma, NOS, dosed 26 weeks, study length 80 weeks)?
The TD50 was 0.396 mg/kg/day.

What about the TD50 (rat, strain Sprague-Dawley, females, i.p., site: mammary gland, lesion: adenocarcinoma, NOS + adenoma, NOS, dosed 26 weeks, study length 86 weeks) of the same compound?
The TD50 was 0.458 mg/kg/day.

What about the TD50 (rat, strain Sprague-Dawley, females, i.p., site: mammary gland, lesion: adenocarcinoma, NOS, dosed 26 weeks, study length 80 weeks) of the same compound?
Its TD50 is 0.397 mg/kg/day.

And the TD50 (rat, strain Sprague-Dawley, females, i.p., site: mammary gland, lesion: adenocarcinoma, NOS, dosed 26 weeks, study length 86 weeks)?
Its TD50 is 0.459 mg/kg/day.

And the TD50 (rat, strain Sprague-Dawley, males, i.p., site: all sites + brain + mammary gland + olfactory bulb, lesion: leukemia + lymphoma + carcinoma, NOS + olfactory neuroblastoma + adenocarcinoma, NOS + adenoma, NOS, dosed 26 weeks, study length 61 weeks)?
Its TD50 is 0.284 mg/kg/day.

What about the TD50 (rat, strain Sprague-Dawley, males, i.p., site: all sites, lesion: leukemia + lymphoma, dosed 26 weeks, study length 61 weeks) of the same compound?
Its TD50 is 2.1 mg/kg/day.

And the TD50 (rat, strain Sprague-Dawley, males, i.p., site: all sites, lesion: leukemia, dosed 26 weeks, study length 61 weeks)?
The TD50 was 13.3 mg/kg/day.

What about the TD50 (rat, strain Sprague-Dawley, males, i.p., site: all sites, lesion: lymphoma, dosed 26 weeks, study length 61 weeks) of the same compound?
The TD50 was 2.51 mg/kg/day.

What about the TD50 (rat, strain Sprague-Dawley, males, i.p., site: any site (literature study), lesion: several types, types named in the paper, dosed 26 weeks, study length 61 weeks) of the same compound?
Its TD50 is 0.186 mg/kg/day.

And the TD50 (rat, strain Sprague-Dawley, males, i.p., site: brain + olfactory bulb, lesion: carcinoma, NOS + olfactory neuroblastoma + adenocarcinoma, NOS, dosed 26 weeks, study length 61 weeks)?
Its TD50 is 0.343 mg/kg/day.

What about the TD50 (rat, strain Sprague-Dawley, males, i.p., site: mammary gland, lesion: adenocarcinoma, NOS + adenoma, NOS, dosed 26 weeks, study length 61 weeks) of the same compound?
The TD50 was 4.5 mg/kg/day.

What about the TD50 (rat, strain Sprague-Dawley, males, i.p., site: mammary gland, lesion: adenocarcinoma, NOS, dosed 26 weeks, study length 61 weeks) of the same compound?
Its TD50 is 4.85 mg/kg/day.

And the TD50 (rat, strain Sprague-Dawley, males, i.p., site: olfactory bulb, lesion: adenocarcinoma, NOS, dosed 26 weeks, study length 61 weeks)?
The TD50 was 4.67 mg/kg/day.
